From patent publication US7250428B2, “Cetylpyridinium salt of an anti-inflammatory agent and pharmaceutical compositions containing it” (Aziende Chimiche Riunite Angelini Francesco A.C.R.A.F. …, priority 2003, dated 2007)

Assay: stability in the presence of water
Format: physicochemical

CCCCCCCCCCCCCCCC[n+]1ccccc1.O=C([O-])Cc1ccccc1Nc1c(Cl)cccc1Cl [cetylpyridinium salt of diclofenac, cetylpyridinium (1-hexadecylpyridinium) salt of diclofenac]
stability in the presence of water: virtually infinite
